Laboratory results as given in article PMC12598866, “A Comparative Study of Virucidal and Virustatic Multivalent Entry Inhibitors” (The Journal of Physical Chemistry. B, 2025).
Like-named read-outs stand apart in the source and are kept apart here.

Columns and labels:
[1] = Cytotoxicity assay on Vero cells (MTS); assay type: cell-based; conditions: African green monkey
Protocol: Cytotoxicity assay was performed on the Vero cell line with the MTS assay. The cells were plated for 24 h in DMEM medium containing 10% FBS and 1% penicillin/streptomycin with a seeding density of 2 × 10^4 per well in a 96-well plate. […] Then, the cells were washed with PBS twice, followed by the addition of 20 μL MTS reagents together with 80 μL DMEM medium. They were then incubated at 37 °C for 4 h. The cell viability was checked by absorbance at 490 nm with a plate reader.

Flu B = assay: Influenza inhibition assay (ICC on MDCK cells); assay type: cell-based; conditions: dose–response
[2] = Cytotoxicity assay for MDCK (MTT); assay type: cell-based; conditions: dog, MDCK cells
Protocol: MTT assay was used to evaluate the cytotoxicity on MDCK cells. 10^4 cells per well were seeded in a 96-well plate 1 day before the assay. A dose range of each drug (from 4.11 μM to 1000 μM) was added to the cells in serum-free medium for MDCK cells. The antivirals were incubated on the cells for 24 h at 37 °C. After incubation, the cells were washed, and MTT reagent (Promega) was added to the cells for 4 h at 37 °C according to the manufacturer’s instructions. The cells were then washed, and 50 μL of DMSO was added to free the reagent. Subsequently, the absorbance was read at 579 nm. Percentages of viability were calculated by comparing the absorbance in treated wells and untreated conditions.

H3N2 [3] = assay: microbe, parasite or virus in culture; assay type: cell-based; conditions: Influenza A virus, posttreatment condition, MDCK cells
BSA = biological target: T1, BSA (Bos taurus, UniProt P02769); assay: Isothermal titration calorimetry with BSA; assay type: binding, bovine; conditions: ITC
T1 construct: purchased Sigma-Aldrich

HSV-2 [4] = assay: HSV-2 inhibition assay (plaque reduction on Vero cells, pretreatment); assay type: cell-based, herpes simplex virus type 2; conditions: for IC50: Human alphaherpesvirus 2, Vero, dose–response, Vero cells
Protocol: The inhibitory effect of compounds on HSV-2 was evaluated by plaque reduction assay. Vero cells were plated 24 h before the experiment in 24-well plates with a seeding density of 10^5 cells/well. Serial dilutions of compounds in DMEM medium (2% FBS, 1% P/S) were prepared, followed by the addition of aliquots of HSV-2 such that the final titer of the virus was 200 pfu/mL (with MOI = 0.0005). Compounds/virus mixtures were incubated at 37 °C for 1 h and added to the cells (250 μL/well). Followed by incubation at 37 °C for 1 h, the viral inoculum was removed. The cells were overlaid with DMEM medium containing 1.2% methylcellulose, 2% FBS, and 1% P/S. After 48 h of incubation at 37 °C, 5% CO2, the cells were fixed and stained with 0.1% crystal violet in 20% ethanol. Finally, the plaques were counted. Each group of experiments in the inhibition assay was performed in triplicate. The concentration producing a 50% reduction in plaque formation was determined using Prism 10 software (GraphPad Software, USA) by comparing compound-treated and untreated cells. Infectivity was calculated as the number of plaques in compound-treated cells/number of plaques in untreated cells × 100%.

HSV-2 [5] = assay: HSV-2 virucidal assay; assay type: cell-based, herpes simplex virus type 2; conditions: for inhibition mechanism against HSV-2 (in words): virucidal tests
H3N2 [6] = assay: Influenza inhibition assay (ICC on MDCK cells, pretreatment); assay type: cell-based; conditions: Influenza A virus
[7] = biological target: glycoprotein D (gD) of HSV; assay: Isothermal titration calorimetry with glycoprotein D; assay type: binding; conditions: ITC, 25°C
Protocol: Isothermal titration calorimetry (ITC) experiments were conducted using ITC200 instruments (GE Healthcare, USA) equipped with a 200 μL sample cell and a 40 μL syringe. Thirteen injections were applied. The first data point was excluded. BSA protein and viral protein concentrations in the cell were approximately 50 μM and 1 mg/mL, respectively, and ligand concentrations in the syringe were roughly 2 mM. They were centrifuged at 2000g for 2 min to remove bubbles. The titration was performed at 25 or 37 °C, with data analyzed using MicroCal PEAQ ITC software. Baseline correction was applied, and Nitpic/Sedphat was used for automated integration to ensure precise binding parameter determination.

HSV-2 [8] = assay: HSV-2 inhibition assay (plaque reduction on Vero cells, pretreatment); assay type: cell-based, herpes simplex virus type 2; conditions: Human alphaherpesvirus 2, Vero, pretreatment condition
HSV-1 = HSV-1 inhibition assay (plaque reduction on Vero cells); assay type: cell-based, herpes simplex virus type 1; conditions: Human alphaherpesvirus 1, dose–response
Protocol: The inhibitory effect of compounds on HSV-1 was evaluated by plaque reduction assay. Vero cells were plated 24 h before the experiment in 24-well plates at a density of 10^5 cells/well. Serial dilutions of compounds in DMEM medium (2% FBS, 1% P/S) were prepared, followed by the addition of aliquots of HSV-1 such that the final titer of the virus is […] (with MOI = 0.0005). Compounds/virus mixtures were incubated at 37 °C for 1 h and added to the cells (250 μL/well). Followed by incubation at 37 °C for 1 h, the viral inoculum was removed. The cells were overlaid with DMEM medium containing 1.2% methylcellulose, 2% FBS, and 1% P/S. After 3 days of incubation at 37 °C, 5% CO2, the cells were fixed and stained with 0.1% crystal violet in 20% ethanol, and plaques were counted. Each group of experiments in the inhibition assay was performed in triplicate. The concentration producing a 50% reduction in plaque formation was determined using the Prism 10 software (GraphPad Software, USA) by comparing compound-treated and untreated cells. Infectivity was calculated as the number of plaques in compound-treated cells/number of plaques in untreated cells × 100%.

[9] = test system: NO production in RAW 264.7 cells; assay: NO production in LPS-stimulated macrophages; assay type: cell-based; conditions: Mus musculus, RAW264.7; RAW 264.7 pretreated 2 h with MEIs, then LPS 1 μg/mL for 24 h
Protocol: To evaluate the anti-inflammatory potential of MEIs, we investigated their ability to reduce the level of NO production in macrophages. RAW 264.7 cells were pretreated with the different concentrations of MEIs for 2 h, followed by stimulation with lipopolysaccharide (LPS) (1 μg/mL) for 24 h to induce inflammation. […] However, cotreatment with MEIs led to a reduction in NO levels, confirming their anti-inflammatory effect.

[10] = H2O, 25 °C (Table 5), read-out: K d (BSA)
[11] = dose–response, read-out: IC50 H3N2
[12] = pretreatment condition, read-out: pretreatment IC50, H3N2
[13] = HSV-2 inhibition, concentration intended to inhibit infection by at least 90 and 99%

T1 sequence (P02769 25-607): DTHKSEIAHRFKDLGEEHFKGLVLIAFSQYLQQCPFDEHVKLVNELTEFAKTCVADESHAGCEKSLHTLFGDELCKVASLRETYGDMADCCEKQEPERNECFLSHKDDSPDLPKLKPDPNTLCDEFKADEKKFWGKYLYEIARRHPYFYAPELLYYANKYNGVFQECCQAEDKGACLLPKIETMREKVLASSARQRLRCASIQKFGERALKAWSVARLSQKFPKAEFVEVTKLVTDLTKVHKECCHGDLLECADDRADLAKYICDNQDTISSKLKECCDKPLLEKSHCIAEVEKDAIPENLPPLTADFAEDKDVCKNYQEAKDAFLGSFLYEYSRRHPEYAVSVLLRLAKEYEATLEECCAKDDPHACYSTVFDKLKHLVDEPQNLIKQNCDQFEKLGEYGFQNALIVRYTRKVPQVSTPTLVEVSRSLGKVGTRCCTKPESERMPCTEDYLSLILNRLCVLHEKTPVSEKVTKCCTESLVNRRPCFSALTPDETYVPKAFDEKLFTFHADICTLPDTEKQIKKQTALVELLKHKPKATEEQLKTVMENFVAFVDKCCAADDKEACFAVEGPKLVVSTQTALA

| Structure (SMILES) | CC50 at 48 h [1] | IC50 (Flu B) | CC50 at 24 h [2] | IC50 (H3N2 [3]) | ΔG (BSA) (BSA; H2O, 25 °C (Table 5)) | ΔH (BSA) (BSA; H2O, 25 °C (Table 5)) | –ΔTS (BSA) (BSA; H2O, 25 °C (Table 5)) | Kd (BSA; [10]) | IC50 (HSV-2 [4]) | inhibition mechanism against HSV-2 (in words) (HSV-2 [5]) | IC50 (H3N2 [6]; [11]) | IC50 (H3N2 [6]; [12]) | Kd [7] | IC50 (HSV-2 [8]) | IC50 (HSV-1) | IC50 [9] | -∆TS (BSA) (BSA; PBS, 25 °C (Table S3)) | Kd (BSA; PBS, 25 °C (Table S3)) | N (BSA) (BSA; PBS, 25 °C (Table S3)) | ∆G (BSA) (BSA; PBS, 25 °C (Table S3)) | also measured |
| --- | --- | --- | --- | --- | --- | --- | --- | --- | --- | --- | --- | --- | --- | --- | --- | --- | --- | --- | --- | --- | --- |
| O=S(=O)(O)CCCCCCCCCCCSCc1cc(CSCCCCCCCCCCCS(=O)(=O)O)cc(CSCCCCCCCCCCCS(=O)(=O)O)c1 [B3C11SO3] | > 546 µM | 324 ± 103 µM | > 415 µM | 24.8 ± 1.2 µM | –7.15 kcal/mol | –9.08 kcal/mol | 1.93 kcal/mol | 5.82 µM | 88.5 ± 7.6 µM | virustatic | 49.5 ± 8.7 µM | 49.5 ± 8.7 µM | 23.2 µM | 88.5 ± 7.6 µM | 139 ± 4.6 µM |  |  |  |  |  | -∆TS (BSA) (BSA; H2O, 25 °C (Table S3)): 1.93 kcal/mol; N (BSA) (BSA; H2O, 25 °C (Table S3)): 1.1; ∆G (BSA) (BSA; H2O, 25 °C (Table S3)): -7.15 kcal/mol; ∆H (BSA) (BSA; H2O, 25 °C (Table S3)): -9.08 kcal/mol; -∆TS (BSA) (BSA; H2O, 37 °C (Table S3)): 0.272 kcal/mol; Kd (BSA; H2O, 37 °C (Table S3)): 4.97 µM; N (BSA) (BSA; H2O, 37 °C (Table S3)): 0.838; ∆G (BSA) (BSA; H2O, 37 °C (Table S3)): -7.53 kcal/mol; ∆H (BSA) (BSA; H2O, 37 °C (Table S3)): -9.78 kcal/mol; IC99 (HSV-2 [4]): 1092 ± 7.6 µM; Virucidal/Virustatic, HSV-2 (HSV-2 [5]; concentration 300 uM): Virustatic; Virucidal/Virustatic, HSV-2 (HSV-2 [5]; concentration 500 uM): Virustatic; Virucidal activity, HSV-2 (HSV-2 [5]; virucidal titration at 90–99% viral inhibition concentration, Vero cells): S |
| O=S(=O)(O)OCCCCCCCCCCCSCc1cc(CSCCCCCCCCCCCOS(=O)(=O)O)cc(CSCCCCCCCCCCCOS(=O)(=O)O)c1 [B3C11SO4] | 313 ± 28.7 µM | 0.4 ± 0.04 µM | 12.2 ± 0.94 µM | 8.6 µM | –7.71 kcal/mol | –5.4 kcal/mol | –2.31 kcal/mol | 2.23 µM | 43 ± 8.3 µM | virucidal | 0.6 ± 0.12 µM | 0.6 ± 0.12 µM | 28.2 µM | 43 ± 8.3 µM | 43 ± 1.14 µM | 152.8 ± 1.27 µM | -9.86 kcal/mol | 3.8 µM | 3.21 | -7.46 kcal/mol | ∆H (BSA) (BSA; PBS, 25 °C (Table S3)): 2.46 kcal/mol; -∆TS (BSA) (BSA; PBS, 37 °C (Table S3)): -9.8 kcal/mol; Kd (BSA; PBS, 37 °C (Table S3)): 1.37 µM; N (BSA) (BSA; PBS, 37 °C (Table S3)): 2.58; ∆G (BSA) (BSA; PBS, 37 °C (Table S3)): -8.32 kcal/mol; ∆H (BSA) (BSA; PBS, 37 °C (Table S3)): 1.48 kcal/mol; IC99 (HSV-2 [4]; [13]): 103.8 ± 8.3 µM |
| O=S(=O)(O)CCCCCCCCCCCSCc1cc2c(cc1CSCCCCCCCCCCCS(=O)(=O)O)OCCOCCOc1cc(CSCCCCCCCCCCCS(=O)(=O)O)c(CSCCCCCCCCCCCS(=O)(=O)O)cc1OCCOCCO2 [C4C11SO3] | > 358 µM | 7.7 ± 3.75 µM | 202.3 ± 0.76 µM | 52.6 ± 0.5 µM | –6.81 kcal/mol | –0.934 kcal/mol | –5.88 kcal/mol | 10.3 µM | 18.5 ± 5.2 µM | virucidal | 6.4 ± 1.03 µM | 40.9 ± 1.19 µM | 83.5 µM | 9.8 ± 1.5 µM | 118 ± 10.4 µM | 173.8 ± 1.52 µM | -2.06 kcal/mol | 124 µM | 10 | -5.33 kcal/mol | N (binding sites, BSA) (BSA; H2O, 25 °C (Table 5)): 2.63; ∆H (BSA) (BSA; PBS, 25 °C (Table S3)): -1.58 kcal/mol; -∆TS (BSA) (BSA; PBS, 37 °C (Table S3)): -7.9 kcal/mol; Kd (BSA; PBS, 37 °C (Table S3)): 1.64 µM; N (BSA) (BSA; PBS, 37 °C (Table S3)): 2.6; ∆G (BSA) (BSA; PBS, 37 °C (Table S3)): -8.21 kcal/mol; ∆H (BSA) (BSA; PBS, 37 °C (Table S3)): -0.315 kcal/mol; IC99 (HSV-2 [4]; [13]): 408 ± 1.5 µM; Virucidal/Virustatic, HSV-2 (HSV-2 [5]; concentration 126.3 uM): Virucidal; Virucidal/Virustatic, HSV-2 (HSV-2 [5]; concentration 237.16 uM): Virucidal; Virucidal/Virustatic, HSV-2 (HSV-2 [5]; concentration 304 uM): Virucidal |
| O=S(=O)(O)OCCCCCCCCCCCSCc1cc2c(cc1CSCCCCCCCCCCCOS(=O)(=O)O)OCCOCCOc1cc(CSCCCCCCCCCCCOS(=O)(=O)O)c(CSCCCCCCCCCCCOS(=O)(=O)O)cc1OCCOCCO2 [C4C11SO4] | > 657 µM | 47.9 ± 9.38 µM | > 194 µM | 18.3 ± 0.75 µM | –6.07 kcal/mol | –2.73 kcal/mol | –3.34 kcal/mol | 35.7 µM | 9.8 ± 1.5 µM |  | 40.9 ± 1.19 µM | 6.4 ± 1.03 µM | 141 µM | 18.5 ± 5.2 µM | 22.5 ± 4.2 µM | 66.1 ± 1.23 µM | -3.6 kcal/mol | 161 µM | 10 | -5.18 kcal/mol | N (binding sites, BSA) (BSA; H2O, 25 °C (Table 5)): 2.5; ∆H (BSA) (BSA; PBS, 25 °C (Table S3)): -1.58 kcal/mol; -∆TS (BSA) (BSA; PBS, 37 °C (Table S3)): -4.71 kcal/mol; Kd (BSA; PBS, 37 °C (Table S3)): 8.47 µM; N (BSA) (BSA; PBS, 37 °C (Table S3)): 7.6; ∆G (BSA) (BSA; PBS, 37 °C (Table S3)): -7.2 kcal/mol; ∆H (BSA) (BSA; PBS, 37 °C (Table S3)): -2.49 kcal/mol; IC99 (HSV-2 [4]; [13]): 67.47 ± 5.2 µM |
